Laboratory results reported in ChEMBL document CHEMBL5614432, “NRF2 inhibitors: Recent progress, future design and therapeutic potential” (Eur J Med Chem, 2024).
One block for each compound: values may come before it.

Columns and labels:
NRF2-MAFG = NRF2-MAFG (Homo sapiens, UniProt O15525+Q16236); experiment: Inhibition of NRF2/MAFG (unknown origin) heterodimerization using fluorescein-labeled ARE DNA duplex as substrate preincubated for 1 hr followed by substrate addition measured after 1 hr by FP assay; format: protein-complex assay
THP-1 = experiment: Cytotoxicity against human THP-1 cells incubated for 48 hrs by CCK8 assay; format: functional, cell-based; details: THP-1, 48 h
cells = details: Homo sapiens, Bel-7402, 48 h
Description: Cytotoxicity against human BEL-7402/ADM cells incubated for 48 hrs by MTT assay

[1] = biological target: T1, Nuclear factor erythroid 2-related factor 2 (Homo sapiens, UniProt Q16236); experiment: Inhibition of NRF2 in human A549 cells; format: cell-based
T1 sequence (Q16236 whole entry): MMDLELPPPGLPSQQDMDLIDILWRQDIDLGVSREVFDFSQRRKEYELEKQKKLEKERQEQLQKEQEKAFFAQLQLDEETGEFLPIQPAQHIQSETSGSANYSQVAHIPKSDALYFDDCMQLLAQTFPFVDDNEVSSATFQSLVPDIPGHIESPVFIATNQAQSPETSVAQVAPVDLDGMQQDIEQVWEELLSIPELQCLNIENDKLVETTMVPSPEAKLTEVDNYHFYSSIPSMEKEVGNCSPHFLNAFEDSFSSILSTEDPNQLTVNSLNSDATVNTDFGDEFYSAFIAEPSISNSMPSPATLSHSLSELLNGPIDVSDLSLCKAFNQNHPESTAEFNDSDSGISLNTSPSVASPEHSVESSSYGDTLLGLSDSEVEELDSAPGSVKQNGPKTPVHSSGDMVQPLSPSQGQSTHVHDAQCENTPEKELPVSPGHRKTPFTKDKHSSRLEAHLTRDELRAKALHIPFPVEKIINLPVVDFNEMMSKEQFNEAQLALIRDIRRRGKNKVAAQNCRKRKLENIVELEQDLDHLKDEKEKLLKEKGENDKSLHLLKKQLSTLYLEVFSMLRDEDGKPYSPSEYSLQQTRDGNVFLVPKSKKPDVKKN

[2] = biological target: T1, Nuclear factor erythroid 2-related factor 2; experiment: Inhibition of NRF2 in human KYSE-70 cells; format: cell-based
U-87 MG = experiment: Inhibition of cell viability in human U-87 MG cells incubated for 24 hrs by MTT assay; format: functional, cell-based, U-87MG ATCC
T98G = experiment: Inhibition of cell viability in human T98G cells incubated for 24 hrs by MTT assay; format: functional, cell-based
A2780 = experiment: Inhibition of cell growth of human A2780 cells incubated for 24 to 96 hrs with re-current replacement of media containing compound for every 48 hrs by CCK8 assay; format: functional, cell-based
SK-OV-3 = experiment: Inhibition of cell growth of human SK-OV-3 cells incubated for 24 to 96 hrs with re-current replacement of media containing compound for every 48 hrs by CCK8 assay; format: functional, cell-based
Caov-4 = experiment: Inhibition of cell growth of human Caov-4 cells incubated for 24 to 96 hrs with re-current replacement of media containing compound for every 48 hrs by CCK8 assay; format: functional, cell-based
[3] = Cytotoxicity against human Leukemic stem cells incubated for 72 hrs by MTT assay; format: functional, cell-based; details: Leukemic stem cell
[4] = Cytotoxicity against human MCF7-DOX cells incubated for 24 hrs by MTT assay; format: functional, cell-based

Sequence of NRF2-MAFG (O15525 whole entry, one chain of several): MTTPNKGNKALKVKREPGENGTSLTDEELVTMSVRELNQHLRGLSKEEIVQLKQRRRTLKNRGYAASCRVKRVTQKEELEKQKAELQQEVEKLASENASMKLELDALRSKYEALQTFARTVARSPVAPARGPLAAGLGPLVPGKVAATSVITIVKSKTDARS

IC50 (NRF2-MAFG): 1.9 µM
Compound: Cc1ccccc1C(=O)N1CCc2cc(-c3nc(NC(=O)Cc4ccc5c(c4)OCO5)sc3C)ccc21

Compound: CC(C)(C)c1ccc(Cn2nc(-c3ccc(Cl)cc3)cc2C(=O)NO)cc1
IC50 (THP-1): 5.33 µM

IC50 (cells): ~50 µM
Compound: O=c1cc(-c2ccc(O)cc2)oc2cc(O)cc(O)c12 [APIGENIN]

IC50 (cells): ~30 µM
Compound: O=c1cc(-c2ccccc2)oc2cc(O)cc(O)c12 [CHRYSIN]

Compound: O=C(CC1NCCCC1O)Cn1cnc2cc(Br)c(Cl)cc2c1=O (stereo not drawn) [HALOFUGINONE]
IC50 [1]: 0.0372 µM
IC50 [2]: 0.0223 µM

Compound: CC(C)c1cccc(=O)c(O)c1 [HINOKITIOL]
IC50 (U-87 MG): 316 µM
IC50 (T98G): 152 µM

IC50 (A2780): ~20 µM
IC50 (SK-OV-3): ~20 µM
Compound: N#CC1(c2ccc(NC(=O)c3cccnc3NCc3ccncc3)cc2)CCCC1 [RIVOCERANIB]
IC50 (Caov-4): ~20 µM

Compound: CC(C)[C@]12O[C@H]1[C@@H]1O[C@]13[C@]1(O[C@H]1C[C@H]1C4=C(CC[C@@]13C)C(=O)OC4)[C@@H]2O [TRIPTOLIDE]
IC50 [3]: 0.0205 µM

Compound: COc1c(O)cc(O)c2c(=O)cc(-c3ccccc3)oc12 [WOGONIN]
IC50 [4]: ~150 µM
